How the values were obtained:
female rat uterus = assay: Antiestrogenic effect on uterine wet weight, immature female Sprague-Dawley rats (Example 8); type: in vivo
[1] = tested on: progesterone receptor (PR); assay: Uterine progesterone receptor levels, hydroxyapatite assay (Example 8); type: in vivo, female Sprague-Dawley rats
Method: (§1) The animals were terminated by cervical dislocation. Livers were perfused with ice-cold TEDG buffer (10 mM Tris-HCl, 1.5 mM EDTA-4Na, 1 mM dithiothreitol, 10% glycerol (v/v), pH 7.4). Following perfusion in situ, livers were removed, weighed, and homogenized in ice-cold TEDG buffer. Uteri were also removed, weighed, and homogenized in ice-cold buffer. The homogenates were then centrifuged at 800×g ([…]) for 15 minutes and the nuclear pellets were stored at -80° C. The supernatants were further centrifuged at 180,000× g for 1.5 hours. The cytosolic supernatant was also stored at -80° C. Estrogen and progesterone receptor levels were determined within 7 days.
(§2) Estrogen (ER) and progesterone (PR) receptor levels were determined by the hydroxyapatite assay as described by Clark et al. (J. Steroid Biochem. 16:323-328, 1982) and incorporated herein by reference. […] Following the incubations, samples were counted and specific binding was calculated by subtraction of nonspecific from total binding. Assuming one steroid molecule binds to one estrogen/progesterone receptor, the number of moles of receptor can be calculated given the specific activity of the radioligand. The data presented in Tables 1 through 6 are means ± SD using at least four animals per treatment group. Significant differences were determined by analysis of variance.

estrogen receptor (ER) = assay: Uterine estrogen receptor levels, hydroxyapatite assay (Example 8); type: in vivo, female Sprague-Dawley rats
Method: A second group of animals was similarly treated with corn oil, TCDD, MCDF, or TCDD plus MCDF, all administered in corn oil at 10 ml/kg and terminated 72 hours later.
as §1, §2

[2] = 150 μmol/kg + E-2 (2 × 10 μg/rat), run B
[3] = compound alone, 150 μmol/kg (17β-estradiol: 2 × 10 μg/rat), run B
[4] = Table 3: 50 μmol/kg + E-2 (2 × 10 μg/rat)
[5] = Table 3: compound alone, 50 μmol/kg (17β-estradiol: 2 × 10 μg/rat)
[6] = Table 2: 50 μmol/kg + E-2 (2 × 10 μg/rat)
[7] = Table 2: compound alone, 50 μmol/kg (17β-estradiol: 2 × 10 μg/rat)
[8] = dose-response, 2 μmol/kg + 17β-estradiol (2 × 10 μg/rat)
[9] = dose-response, 10 μmol/kg + 17β-estradiol (2 × 10 μg/rat)
[10] = dose-response, 25 μmol/kg + 17β-estradiol (2 × 10 μg/rat)
[11] = dose-response, 50 μmol/kg + 17β-estradiol (2 × 10 μg/rat)
[12] = 150 μmol/kg + E-2 (2 × 10 μg/rat), run A
[13] = compound alone, 150 μmol/kg (17β-estradiol: 2 × 10 μg/rat), run A

## CCCc1cc(Cl)cc2c1oc1cc(Cl)cc(Cl)c12 [6-n-Propyl-1,3,8-triCDF]
Female rat uterus; [2]
  Uterine Wet Weight: 0.240 ± 0.019 % body wt
Female rat uterus; [3]
  Uterine Wet Weight: 0.118 ± 0.008 % body wt
[1]; [2]
  Progesterone Receptor Levels, Cytosolic: 1838 ± 62 fmol/mg protein
  Progesterone Receptor Levels, Nuclear: 408 ± 29 fmol/mg protein
[1]; [3]
  Progesterone Receptor Levels, Cytosolic: 740 ± 71 fmol/mg protein
  Progesterone Receptor Levels, Nuclear: 294 ± 21 fmol/mg protein
Estrogen receptor (ER); [2]
  Estrogen Receptor Levels, Cytosolic: 169.4 ± 6.0 fmol/mg protein
  Estrogen Receptor Levels, Nuclear: 33.7 ± 1.7 fmol/mg protein
Estrogen receptor (ER); [3]
  Estrogen Receptor Levels, Cytosolic: 86.4 ± 8.1 fmol/mg protein
  Estrogen Receptor Levels, Nuclear: 35.4 ± 1.8 fmol/mg protein

## CC(C)(C)c1cc(Cl)cc2c1oc1cc(Cl)cc(Cl)c12 [6-t-Butyl-1,3,8-triCDF]
Female rat uterus; [2]
  Uterine Wet Weight: 0.247 ± 0.004 % body wt
Female rat uterus; [3]
  Uterine Wet Weight: 0.122 ± 0.013 % body wt
[1]; [2]
  Progesterone Receptor Levels, Cytosolic: 1844 ± 77 fmol/mg protein
  Progesterone Receptor Levels, Nuclear: 270 ± 19 fmol/mg protein
[1]; [3]
  Progesterone Receptor Levels, Cytosolic: 1109 ± 83 fmol/mg protein
  Progesterone Receptor Levels, Nuclear: 211 ± 15 fmol/mg protein
Estrogen receptor (ER); [2]
  Estrogen Receptor Levels, Cytosolic: 108.6 ± 11.4 fmol/mg protein
  Estrogen Receptor Levels, Nuclear: 41.7 ± 2.1 fmol/mg protein
Estrogen receptor (ER); [3]
  Estrogen Receptor Levels, Cytosolic: 85.5 ± 4.3 fmol/mg protein
  Estrogen Receptor Levels, Nuclear: 41.4 ± 2.1 fmol/mg protein

## Cc1cc2oc3cc(Cl)c(Cl)cc3c2cc1Cl [7-Methyl-2,3,-triCDF, 7-methyl-2,3,8-trichlorodibenzofuran]
Female rat uterus; [4]
  Uterine Wet Weight: 0.255 ± 0.017 % body wt
Female rat uterus; [5]
  Uterine Wet Weight: 0.102 ± 0.011 % body wt
[1]; [4]
  Progesterone Receptor Levels, Cytosolic: 924 ± 74 fmol/mg protein
  Progesterone Receptor Levels, Nuclear: 554 ± 39 fmol/mg protein
[1]; [5]
  Progesterone Receptor Levels, Cytosolic: 501 ± 35 fmol/mg protein
  Progesterone Receptor Levels, Nuclear: 364 ± 26 fmol/mg protein
Estrogen receptor (ER); [4]
  Estrogen Receptor Levels, Cytosolic: 94.2 ± 4.71 fmol/mg protein
  Estrogen Receptor Levels, Nuclear: 48.1 ± 2.4 fmol/mg protein
Estrogen receptor (ER); [5]
  Estrogen Receptor Levels, Cytosolic: 72.9 ± 3.7 fmol/mg protein
  Estrogen Receptor Levels, Nuclear: 35.2 ± 1.8 fmol/mg protein

## CCc1cc(Cl)cc2c1oc1cc(Cl)cc(Cl)c12 [6-Ethyl-1,3,8-triCDF]
Female rat uterus; [2]
  Uterine Wet Weight: 0.226 ± 0.013 % body wt
Female rat uterus; [3]
  Uterine Wet Weight: 0.128 ± 0.007 % body wt
[1]; [2]
  Progesterone Receptor Levels, Cytosolic: 1601 ± 121 fmol/mg protein
  Progesterone Receptor Levels, Nuclear: 277 ± 19 fmol/mg protein
[1]; [3]
  Progesterone Receptor Levels, Cytosolic: 688 ± 49 fmol/mg protein
  Progesterone Receptor Levels, Nuclear: 243 ± 17 fmol/mg protein
Estrogen receptor (ER); [2]
  Estrogen Receptor Levels, Cytosolic: 104.3 ± 77.1 fmol/mg protein
  Estrogen Receptor Levels, Nuclear: 34.9 ± 1.8 fmol/mg protein
Estrogen receptor (ER); [3]
  Estrogen Receptor Levels, Cytosolic: 98.4 ± 5.5 fmol/mg protein
  Estrogen Receptor Levels, Nuclear: 33.9 ± 1.7 fmol/mg protein

## Cc1cc2c(cc1Cl)oc1cc(Cl)c(Cl)cc12
Female rat uterus; [4]
  Uterine Wet Weight: 0.237 ± 0.007 % body wt
Female rat uterus; [5]
  Uterine Wet Weight: 0.138 ± 0.026 % body wt
[1]; [4]
  Progesterone Receptor Levels, Cytosolic: 607 ± 36 fmol/mg protein
  Progesterone Receptor Levels, Nuclear: 204 ± 12 fmol/mg protein
[1]; [5]
  Progesterone Receptor Levels, Cytosolic: 554 ± 33 fmol/mg protein
  Progesterone Receptor Levels, Nuclear: 177 ± 11 fmol/mg protein
Estrogen receptor (ER); [4]
  Estrogen Receptor Levels, Cytosolic: 85.7 ± 4.3 fmol/mg protein
  Estrogen Receptor Levels, Nuclear: 25.7 ± 1.3 fmol/mg protein
Estrogen receptor (ER); [5]
  Estrogen Receptor Levels, Cytosolic: 113.9 ± 5.7 fmol/mg protein
  Estrogen Receptor Levels, Nuclear: 47.8 ± 2.4 fmol/mg protein

## Cc1cc(Cl)cc2c1oc1cc(Cl)c(Cl)cc12 [6-Methyl-2,3,8-triCDF, 6-methyl-2,3,8-trichlorodibenzofuran]
Female rat uterus; [6]
  Uterine Wet Weight: 0.204 ± 0.020 % body wt
Female rat uterus; [7]
  Uterine Wet Weight: 0.125 ± 0.024 % body wt
[1]; [6]
  Progesterone Receptor Levels, Cytosolic: 1062 ± 121 fmol/mg protein
  Progesterone Receptor Levels, Nuclear: 622 ± 71 fmol/mg protein
[1]; [7]
  Progesterone Receptor Levels, Cytosolic: 356 ± 65 fmol/mg protein
  Progesterone Receptor Levels, Nuclear: 395 ± 52 fmol/mg protein
Estrogen receptor (ER); [6]
  Estrogen Receptor Levels, Cytosolic: 105.3 ± 12.2 fmol/mg protein
  Estrogen Receptor Levels, Nuclear: 70.8 ± 8.1 fmol/mg protein
Estrogen receptor (ER); [7]
  Estrogen Receptor Levels, Cytosolic: 84.3 ± 9.3 fmol/mg protein
  Estrogen Receptor Levels, Nuclear: 55.8 ± 7.1 fmol/mg protein

## Cc1cc2c(cc1Br)oc1cc(Br)c(Br)cc12
Female rat uterus; [4]
  Uterine Wet Weight: 0.259 ± 0.020 % body wt
Female rat uterus; [5]
  Uterine Wet Weight: 0.153 ± 0.003 % body wt
[1]; [4]
  Progesterone Receptor Levels, Cytosolic: 505 ± 35 fmol/mg protein
  Progesterone Receptor Levels, Nuclear: 221 ± 15 fmol/mg protein
[1]; [5]
  Progesterone Receptor Levels, Cytosolic: 362 ± 22 fmol/mg protein
  Progesterone Receptor Levels, Nuclear: 270 ± 16 fmol/mg protein
Estrogen receptor (ER); [4]
  Estrogen Receptor Levels, Cytosolic: 133.3 ± 6.7 fmol/mg protein
  Estrogen Receptor Levels, Nuclear: 80.0 ± 4.8 fmol/mg protein
Estrogen receptor (ER); [5]
  Estrogen Receptor Levels, Cytosolic: 128.2 ± 7.7 fmol/mg protein
  Estrogen Receptor Levels, Nuclear: 64.3 ± 4.6 fmol/mg protein

## Cc1cc2c(cc1Cl)oc1c(Cl)c(Cl)c(Cl)cc12 [8-Methyl-2,3,4,7-tetraCDF, 8-Methyl-2,3,4,7-tetrachlorodibenzofuran]
Female rat uterus; [4]
  Uterine Wet Weight: 0.245 ± 0.006 % body wt
Female rat uterus; [5]
  Uterine Wet Weight: 0.094 ± 0.006 % body wt
Female rat uterus; [8]
  Uterine Wet Weight: 0.179 ± 0.009 % body wt
Female rat uterus; [9]
  Uterine Wet Weight: 0.201 ± 0.008 % body wt
Female rat uterus; [10]
  Uterine Wet Weight: 0.181 ± 0.002 % body wt
Female rat uterus; [11]
  Uterine Wet Weight: 0.172 ± 0.005 % body wt
[1]; [4]
  Progesterone Receptor Levels, Cytosolic: 725 ± 51 fmol/mg protein
  Progesterone Receptor Levels, Nuclear: 360 ± 25 fmol/mg protein
[1]; [5]
  Progesterone Receptor Levels, Cytosolic: 616 ± 43 fmol/mg protein
  Progesterone Receptor Levels, Nuclear: 161 ± 13 fmol/mg protein
[1]; cotreatment with 17β-estradiol
  ED40-60 for Inhibition, PRc: 10 µmol/kg
  ED40-60 for Inhibition, PRn: 10 µmol/kg
[1]; [8]
  Progesterone Receptor Levels, Cytosolic: 2167 ± 152 fmol/mg protein
  Progesterone Receptor Levels, Nuclear: 866 ± 52 fmol/mg protein
[1]; [9]
  Progesterone Receptor Levels, Cytosolic: 1670 ± 117 fmol/mg protein
  Progesterone Receptor Levels, Nuclear: 701 ± 35 fmol/mg protein
[1]; [10]
  Progesterone Receptor Levels, Cytosolic: 1405 ± 98 fmol/mg protein
  Progesterone Receptor Levels, Nuclear: 697 ± 56 fmol/mg protein
[1]; [11]
  Progesterone Receptor Levels, Cytosolic: 1098 ± 88 fmol/mg protein
  Progesterone Receptor Levels, Nuclear: 514 ± 41 fmol/mg protein
Estrogen receptor (ER); [4]
  Estrogen Receptor Levels, Cytosolic: 107.2 ± 5.4 fmol/mg protein
  Estrogen Receptor Levels, Nuclear: 43.7 ± 2.2 fmol/mg protein
Estrogen receptor (ER); [5]
  Estrogen Receptor Levels, Cytosolic: 66.8 ± 3.3 fmol/mg protein
  Estrogen Receptor Levels, Nuclear: 30.9 ± 1.6 fmol/mg protein
Estrogen receptor (ER); cotreatment with 17β-estradiol
  ED40-60 for Inhibition, ERc: 10 µmol/kg
  ED40-60 for Inhibition, ERn: 25 µmol/kg
Estrogen receptor (ER); [8]
  Estrogen Receptor Levels, Cytosolic: 183.4 ± 9.2 fmol/mg protein
  Estrogen Receptor Levels, Nuclear: 83.2 ± 4.2 fmol/mg protein
Estrogen receptor (ER); [9]
  Estrogen Receptor Levels, Cytosolic: 151.9 ± 9.1 fmol/mg protein
  Estrogen Receptor Levels, Nuclear: 82.8 ± 5.0 fmol/mg protein
Estrogen receptor (ER); [10]
  Estrogen Receptor Levels, Cytosolic: 137.4 ± 6.9 fmol/mg protein
  Estrogen Receptor Levels, Nuclear: 69.0 ± 4.1 fmol/mg protein
Estrogen receptor (ER); [11]
  Estrogen Receptor Levels, Cytosolic: 114.9 ± 5.8 fmol/mg protein
  Estrogen Receptor Levels, Nuclear: 69.2 ± 4.2 fmol/mg protein

## Cc1cc2c(cc1Cl)oc1c(Cl)cc(Cl)c(Cl)c12 [8-Methyl-1,2,4,7-tetraCDF, 8-methyl-1,2,4,7-tetrachlorodibenzofuran]
Female rat uterus; [6]
  Uterine Wet Weight: 0.213 ± 0.017 % body wt
Female rat uterus; [7]
  Uterine Wet Weight: 0.175 ± 0.007 % body wt
[1]; [6]
  Progesterone Receptor Levels, Cytosolic: 841 ± 73 fmol/mg protein
  Progesterone Receptor Levels, Nuclear: 399 ± 75 fmol/mg protein
[1]; [7]
  Progesterone Receptor Levels, Cytosolic: 685 ± 59 fmol/mg protein
  Progesterone Receptor Levels, Nuclear: 303 ± 46 fmol/mg protein
Estrogen receptor (ER); [6]
  Estrogen Receptor Levels, Cytosolic: 118.4 ± 14.6 fmol/mg protein
  Estrogen Receptor Levels, Nuclear: 66.5 ± 8.9 fmol/mg protein
Estrogen receptor (ER); [7]
  Estrogen Receptor Levels, Cytosolic: 97.1 ± 10.1 fmol/mg protein
  Estrogen Receptor Levels, Nuclear: 40.6 ± 5.3 fmol/mg protein

## Cc1cc(Cl)c2oc3cc(Cl)cc(Cl)c3c2c1 [8-Methyl-1,3,6-triCDF]
Female rat uterus; [12]
  Uterine Wet Weight: 0.212 ± 0.021 % body wt
Female rat uterus; [13]
  Uterine Wet Weight: 0.089 ± 0.008 % body wt
[1]; [12]
  Progesterone Receptor Levels, Cytosolic: 838 ± 66 fmol/mg protein
  Progesterone Receptor Levels, Nuclear: 203 ± 35 fmol/mg protein
[1]; [13]
  Progesterone Receptor Levels, Cytosolic: 686 ± 77 fmol/mg protein
  Progesterone Receptor Levels, Nuclear: 188 ± 29 fmol/mg protein
Estrogen receptor (ER); [12]
  Estrogen Receptor Levels, Cytosolic: 65.9 ± 77.5 fmol/mg protein
  Estrogen Receptor Levels, Nuclear: 20.8 ± 70.5 fmol/mg protein
Estrogen receptor (ER); [13]
  Estrogen Receptor Levels, Cytosolic: 54.1 ± 6.2 fmol/mg protein
  Estrogen Receptor Levels, Nuclear: 38.1 ± 5.8 fmol/mg protein

— US5516790A, “Synthesis and application of alkyl-substituted dibenzofurans as antitumorigenic agents” (Texas A&M University System Technology Licensing Office, priority 1994, dated 1996)
